Assay results from PubChem BioAssay AID248 (DTP/NCI, 2004).
Several values for one entry are separate records, joined by “and”; a condition that tells them apart may be missing. Equal entries are not always repeated. Inconclusive results and toxic doses are left out.

System: L1210 leukemia ip in BDF1 mice, survival T/C
Test: NCI In Vivo Anticancer Drug Screen. Data for tumor model L1210 Leukemia (intraperitoneal) in B6D2F1 (BDF1) mice
Settings: endpoint: mean survival time, higher = longer survival
Summary of the method: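 Antitumor effect is assessed in tumor-bearing animals. Survival in the compound arm is compared with a vehicle-dosed control arm and expressed as their quotient.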

[1] = dose: 100.0 mg/kg/injection, schedule: Q01DX009 (ip), vehicle: saline
[2] = dose: 200.0 mg/kg/injection, schedule: Q01DX009 (ip), vehicle: saline
[3] = dose: 400.0 mg/kg/injection, schedule: Q01DX009 (ip), vehicle: saline
[4] = dose: 100.0 mg/kg/injection, schedule: Q04DX003 (ip), vehicle: saline with Tween-80
[5] = dose: 200.0 mg/kg/injection, schedule: Q04DX003 (ip), vehicle: saline with Tween-80
[6] = dose: 400.0 mg/kg/injection, schedule: Q04DX003 (ip), vehicle: saline with Tween-80
[7] = dose: 100.0 mg/kg/injection, schedule: Q01DX001 (ip), vehicle: saline
[8] = dose: 200.0 mg/kg/injection, schedule: Q01DX001 (ip), vehicle: saline
[9] = dose: 400.0 mg/kg/injection, schedule: Q01DX001 (ip), vehicle: saline
[10] = dose: 100.0 mg/kg/injection, schedule: Q01DX009 (ip), vehicle: Klucel (hydroxypropylcellulose) (HPC)
[11] = dose: 200.0 mg/kg/injection, schedule: Q01DX009 (ip), vehicle: Klucel (hydroxypropylcellulose) (HPC)
[12] = dose: 400.0 mg/kg/injection, schedule: Q01DX009 (ip), vehicle: Klucel (hydroxypropylcellulose) (HPC)
[13] = dose: 50.0 mg/kg/injection, schedule: Q01DX001 (ip), vehicle: saline
[14] = dose: 100.0 mg/kg/injection, schedule: Q04DX003 (ip), vehicle: saline
[15] = dose: 200.0 mg/kg/injection, schedule: Q04DX003 (ip), vehicle: saline

In the case of O=C(O)/C=C\C(=O)Nc1ccccc1NC(=O)/C=C/C(=O)O, the T/C [1] was 96 % of control, the T/C [2] was 94 % of control and the T/C [3] was 91 % of control.
O=S(=O)(OC1CC2C=CC1C21CC1)c1ccc(Br)cc1 (centres undefined) was tested, and the T/C (dose: 100.0 mg/kg/injection, schedule: Q01DX001 (ip), vehicle: Klucel (hydroxypropylcellulose) (HPC)) was 98 % of control, the T/C (dose: 200.0 mg/kg/injection, schedule: Q01DX001 (ip), vehicle: Klucel (hydroxypropylcellulose) (HPC)) was 97 % of control and the T/C (dose: 400.0 mg/kg/injection, schedule: Q01DX001 (ip), vehicle: Klucel (hydroxypropylcellulose) (HPC)) was 94 % of control.
For O=C(N/N=C/c1ccc2c(c1)CCC2)c1ccccc1, the T/C [4] was 92 % of control, the T/C [5] was 90 % of control and the T/C [6] was 88 % of control.
For COc1ccc(C2C3C=CC(C3)C2C(=O)O)cc1 (centres undefined), the T/C (dose: 100.0 mg/kg/injection, schedule: Q01DX009 (ip), vehicle: saline with Tween-80) was 97 % of control, the T/C [4] was 93 % of control and the T/C (dose: 200.0 mg/kg/injection, schedule: Q01DX009 (ip), vehicle: saline with Tween-80) was 93 % of control. The T/C (dose: 400.0 mg/kg/injection, schedule: Q01DX009 (ip), vehicle: saline with Tween-80) was 95 % of control and the T/C [6] was 91 % of control.
With Brc1ccc2[nH]c3c(c2c1)CSCC3 the T/C (dose: 100.0 mg/kg/injection, schedule: Q01DX001 (ip), vehicle: saline with Tween-80) was 95 % of control, the T/C (dose: 200.0 mg/kg/injection, schedule: Q01DX001 (ip), vehicle: saline with Tween-80) was 111 % of control and the T/C (dose: 400.0 mg/kg/injection, schedule: Q01DX001 (ip), vehicle: saline with Tween-80) was 108 % of control.
With Clc1ccccc1/C=N/N1CCN(/N=C/c2ccccc2Cl)CC1 the T/C [7] was 97 % of control, the T/C [8] was 95 % of control and the T/C [9] was 101 % of control.
With O=C(N/N=C/c1ccc(Cl)cc1)c1ccc(Cl)cc1 the T/C [4] was 105 % of control, the T/C [5] was 98 % of control and the T/C [6] was 91 % of control.
For CCCc1nnn(S(=O)(=O)c2ccc([N+](=O)[O-])cc2)c1CCC, the T/C (dose: 177.0 mg/kg/injection, schedule: Q01DX001 (ip), vehicle: other) was 88 % of control, the T/C (dose: 266.0 mg/kg/injection, schedule: Q01DX001 (ip), vehicle: other) was 91 % of control and the T/C (dose: 400.0 mg/kg/injection, schedule: Q01DX001 (ip), vehicle: other) was 96 % of control. The T/C (dose: 600.0 mg/kg/injection, schedule: Q01DX001 (ip), vehicle: other) was 88 % of control.
For COc1cc(NS(C)(=O)=O)ccc1Nc1c2ccc([N+](=O)[O-])cc2nc2c(C)cccc12, the T/C (dose: 0.12 mg/kg/injection, schedule: Q01DX009 (ip), vehicle: saline) was 122 % of control, the T/C (dose: 0.37 mg/kg/injection, schedule: Q04DX003 (ip), vehicle: saline) was 113 % of control and the T/C (dose: 0.62 mg/kg/injection, schedule: Q01DX009 (ip), vehicle: saline) was 112 % of control. For the same compound, the T/C (dose: 0.75 mg/kg/injection, schedule: Q04DX003 (ip), vehicle: saline) was 161 % of control, the T/C (dose: 1.0 mg/kg/injection, schedule: Q01DX009 (ip), vehicle: saline) was 166 % of control and the T/C (dose: 1.25 mg/kg/injection, schedule: Q01DX009 (ip), vehicle: saline) was 121 % of control. For the same compound, the T/C (dose: 1.5 mg/kg/injection, schedule: Q04DX003 (ip), vehicle: saline) was 187 % of control, the T/C (dose: 2.5 mg/kg/injection, schedule: Q01DX009 (ip), vehicle: saline) was 275 % of control and the T/C (dose: 5.0 mg/kg/injection, schedule: Q01DX009 (ip), vehicle: saline) was 111 % of control and 277 % of control. For the same compound, the T/C (dose: 5.0 mg/kg/injection, schedule: Q01DX009 (sc), vehicle: saline) was 165 % of control, the T/C (dose: 7.5 mg/kg/injection, schedule: Q04DX003 (ip), vehicle: saline) was 218 % of control and the T/C (dose: 15.0 mg/kg/injection, schedule: Q01DX001 (ip), vehicle: other) was 162 % of control. The T/C (dose: 15.0 mg/kg/injection, schedule: Q01DX009 (ip), vehicle: saline) was 103 % of control, the T/C (dose: 15.0 mg/kg/injection, schedule: Q04DX003 (ip), vehicle: saline) was 162 % of control and the T/C (dose: 20.0 mg/kg/injection, schedule: Q01DX009 (ip), vehicle: saline) was 86 % of control. For the same compound, the T/C (dose: 33.0 mg/kg/injection, schedule: Q01DX001 (ip), vehicle: other) was 180 % of control, the T/C (dose: 50.0 mg/kg/injection, schedule: Q01DX001 (ip), vehicle: other) was 177 % of control and the T/C (dose: 75.0 mg/kg/injection, schedule: Q01DX001 (ip), vehicle: other) was 159 % of control. The T/C (dose: 75.0 mg/kg/injection, schedule: Q01DX001 (ip), vehicle: saline) was 203 % of control, the T/C (dose: 113.0 mg/kg/injection, schedule: Q01DX001 (ip), vehicle: other) was 173 % of control and the T/C (dose: 150.0 mg/kg/injection, schedule: Q01DX001 (ip), vehicle: saline) was 98 % of control.
In the case of COc1c(NC(=O)Nc2ccc(F)c([N+](=O)[O-])c2)cccc1[N+](=O)[O-], the T/C [10] was 93 % of control, the T/C [11] was 101 % of control and the T/C [12] was 97 % of control.
With N#CCNC(=O)c1ccccc1 the T/C (dose: 12.5 mg/kg/injection, schedule: Q01DX009 (ip), vehicle: Klucel (hydroxypropylcellulose) (HPC)) was 101 % of control, the T/C (dose: 25.0 mg/kg/injection, schedule: Q01DX009 (ip), vehicle: Klucel (hydroxypropylcellulose) (HPC)) was 104 % of control and the T/C (dose: 25.0 mg/kg/injection, schedule: Q04DX003 (ip), vehicle: Klucel (hydroxypropylcellulose) (HPC)) was 98 % of control. The T/C (dose: 50.0 mg/kg/injection, schedule: Q01DX009 (ip), vehicle: Klucel (hydroxypropylcellulose) (HPC)) was 102 % of control and the T/C (dose: 50.0 mg/kg/injection, schedule: Q04DX003 (ip), vehicle: Klucel (hydroxypropylcellulose) (HPC)) was 98 % of control.
With CCOc1c(CNC(=O)CCl)cc(N)cc1CNC(=O)CCl the T/C [13] was 106 % of control and the T/C [7] was 111 % of control.
For Cc1cc(Br)cnc1Cl, the T/C [4] was 96 % of control, the T/C [5] was 94 % of control and the T/C [6] was 96 % of control.
In the case of CCN(CC)c1ccc(N=C2C=C(C(=O)Nc3ccccc3OC)C(=O)c3ccccc32)c(C)c1, the T/C [7] was 102 % of control, the T/C [8] was 105 % of control and the T/C [9] was 96 % of control.
In the case of CCOC(=O)CNC(=O)C1CSC(C)(C)N1C=O (centres undefined), the T/C [14] was 101 % of control, the T/C [15] was 94 % of control and the T/C (dose: 400.0 mg/kg/injection, schedule: Q04DX003 (ip), vehicle: saline) was 101 % of control.
For O=C1C(Br)=C(Br)C(=O)c2ccccc21, the T/C [13] was 106 % of control and the T/C [7] was 110 % of control.
In the case of COC(=O)CCC(NC(=O)C1CCN(C(=O)OCc2ccccc2)CC1)C(=O)OC (centres undefined), the T/C [7] was 99 % of control, the T/C [1] was 103 % of control and the T/C (dose: 100.0 mg/kg/injection, schedule: Q04DX003 (ip), vehicle: acetone) was 95 % of control. The T/C [8] was 100 % of control, the T/C [2] was 102 % of control and the T/C (dose: 200.0 mg/kg/injection, schedule: Q04DX003 (ip), vehicle: acetone) was 98 % of control. The T/C [9] was 94 % of control, the T/C [3] was 103 % of control and the T/C (dose: 400.0 mg/kg/injection, schedule: Q04DX003 (ip), vehicle: acetone) was 98 % of control.
In the case of Cc1ncc(CS(=O)(=O)O)c(N)n1, the T/C [10] was 92 % of control, the T/C (dose: 100.0 mg/kg/injection, schedule: Q04DX003 (ip), vehicle: Klucel (hydroxypropylcellulose) (HPC)) was 97 % of control and the T/C [11] was 100 % of control. The T/C (dose: 200.0 mg/kg/injection, schedule: Q04DX003 (ip), vehicle: Klucel (hydroxypropylcellulose) (HPC)) was 98 % of control, the T/C [12] was 98 % of control and the T/C (dose: 400.0 mg/kg/injection, schedule: Q04DX003 (ip), vehicle: Klucel (hydroxypropylcellulose) (HPC)) was 97 % of control.
CC1(C)N=C(N)N=C(N)N1c1ccc(CN)cc1 was tested, and the T/C [14] was 109 % of control and the T/C [15] was 101 % of control.
For CCOC(=O)c1cc(C)nc2ccc(Br)cc12, the T/C (dose: 100.0 mg/kg/injection, schedule: Q04DX002 (ip), vehicle: saline with Tween-80) was 97 % of control, the T/C (dose: 200.0 mg/kg/injection, schedule: Q04DX002 (ip), vehicle: saline with Tween-80) was 108 % of control and the T/C (dose: 400.0 mg/kg/injection, schedule: Q04DX002 (ip), vehicle: saline with Tween-80) was 97 % of control.
